Series [1] has as its target T1, Amine oxidase [flavin-containing] A (Homo sapiens, UniProt P21397).
T1 sequence (P21397 whole entry): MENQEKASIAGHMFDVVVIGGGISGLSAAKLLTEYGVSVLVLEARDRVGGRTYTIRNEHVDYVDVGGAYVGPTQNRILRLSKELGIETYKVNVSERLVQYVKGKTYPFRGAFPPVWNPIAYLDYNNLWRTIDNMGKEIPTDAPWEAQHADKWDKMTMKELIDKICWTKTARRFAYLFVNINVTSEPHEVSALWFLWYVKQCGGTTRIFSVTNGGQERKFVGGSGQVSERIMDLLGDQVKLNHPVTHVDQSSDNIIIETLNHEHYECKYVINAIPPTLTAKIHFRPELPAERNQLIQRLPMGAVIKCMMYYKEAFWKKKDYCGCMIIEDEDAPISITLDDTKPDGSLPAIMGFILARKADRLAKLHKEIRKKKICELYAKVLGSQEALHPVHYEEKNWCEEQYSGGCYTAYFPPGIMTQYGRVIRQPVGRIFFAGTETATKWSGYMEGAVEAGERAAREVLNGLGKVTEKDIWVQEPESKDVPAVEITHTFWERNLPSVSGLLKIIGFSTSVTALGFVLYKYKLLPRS
In words: Inhibition of recombinant human MAOA using kynuramine as substrate assessed as decrease in formation of 4-hydroxyquinoline incubated for 20 mins by fluorescence assay.

The target of series [2] is T2, Amine oxidase [flavin-containing] B (Homo sapiens, UniProt P27338).
T2 sequence (P27338 whole entry): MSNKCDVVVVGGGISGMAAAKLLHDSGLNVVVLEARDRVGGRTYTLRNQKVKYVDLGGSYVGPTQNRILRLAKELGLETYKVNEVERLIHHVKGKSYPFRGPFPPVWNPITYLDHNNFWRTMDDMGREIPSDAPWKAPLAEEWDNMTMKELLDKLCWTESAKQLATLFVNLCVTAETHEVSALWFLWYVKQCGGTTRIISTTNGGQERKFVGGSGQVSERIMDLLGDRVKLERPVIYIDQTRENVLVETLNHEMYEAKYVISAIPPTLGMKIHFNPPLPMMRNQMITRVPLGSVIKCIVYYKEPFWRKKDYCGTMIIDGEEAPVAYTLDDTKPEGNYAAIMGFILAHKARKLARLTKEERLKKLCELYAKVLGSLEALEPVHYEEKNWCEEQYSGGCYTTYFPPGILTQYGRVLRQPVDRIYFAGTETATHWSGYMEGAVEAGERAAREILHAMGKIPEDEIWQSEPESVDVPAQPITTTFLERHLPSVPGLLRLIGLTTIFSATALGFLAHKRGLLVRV
In words: Inhibition of recombinant human MAOB using kynuramine as substrate assessed as decrease in formation of 4-hydroxyquinoline incubated for 20 mins by fluorescence assay.

The next series addresses T3, Caspase-3 (Homo sapiens, UniProt P42574).
T3 sequence (P42574 whole entry): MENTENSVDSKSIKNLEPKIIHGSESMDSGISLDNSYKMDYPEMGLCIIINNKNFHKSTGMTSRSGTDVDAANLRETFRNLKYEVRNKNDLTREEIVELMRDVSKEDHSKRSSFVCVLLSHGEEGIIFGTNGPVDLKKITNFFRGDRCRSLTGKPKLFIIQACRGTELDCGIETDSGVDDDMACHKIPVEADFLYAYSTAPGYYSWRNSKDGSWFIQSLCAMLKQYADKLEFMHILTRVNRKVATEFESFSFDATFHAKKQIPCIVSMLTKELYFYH
Nature of the series: Inhibition of recombinant human caspase-3 using Ac-DEVD-AMC as substrate preincubated for 10 mins followed by substrate addition measured after 60 mins by fluorometric assay.

The target of series [3] is T1, Amine oxidase [flavin-containing] A. Nature of the series: Time-dependent inhibition of recombinant human MAOA using kynuramine as substrate assessed as decrease in formation of 4-hydroxyquinoline at 2 times IC50 preincubated for 15 to 60 mins followed by substrate addition measured after 15 mins by fluorescence assay. Particulars: 0.25 h; call rule not given here.
The species entered for another series is Homo sapiens. In words: Selectivity ratio of IC50 for recombinant human MAOB to IC50 for recombinant human MAOA.

Where a SMILES comes first, the peptide text is derived from it. The star is where a group is joined. Cbz = O=C(OCc1ccccc1)*; CH2F = FC* Some results are limits rather than exact numbers.

What is called IC50 is the point on the concentration scale where inhibition reaches its midpoint. For orientation: Ki means a measure of affinity in units of concentration, obtained from inhibition or displacement.

Take `CN(Cc1ccc(F)cc1)S(=O)(=O)c1ccc2c(c1)C(=O)C(=O)N2`: the IC50 worked out at 8.26 µM in series [1] and 5.96 µM in series [2]. Also, the Ki in series [1] is 2180 nM; in series [2] it was 2.57 µM.
The like results for `C#CCN1C(=O)C(=O)c2cc(S(=O)(=O)N(C)Cc3cccc(F)c3)ccc21` were, in that order, 10.7 µM, 70.6 µM, 2810 nM and 30.4 µM.
On to `C#CCN(C)[C@H](C)Cc1ccccc1` [SELEGILINE], for which the concentration for half-maximal inhibition (IC50) at Caspase-3 is more than 100 µM.
For the compound `CN(Cc1ccccc1F)S(=O)(=O)c1ccc2c(c1)C(=O)C(=O)N2`, the IC50 was 21.6 µM in series [1] and more than 100 µM in series [2]. For the same compound, the Ki in series [1] is 5700 nM.
For `O=C1Nc2ccccc2C1=O` [ISATIN], on Caspase-3, the IC50 was more than 100 µM.
In the case of `C#CCN(C)CCCOc1ccc(Cl)cc1Cl` [CLORGILINE], the IC50 on Caspase-3 is more than 100 µM. The TDI result in series [3] is “Active”.
In the case of `COC(=O)C[C@H](NC(=O)[C@H](C)NC(=O)[C@@H](NC(=O)OCc1ccccc1)C(C)C)C(=O)CF` (Cbz-Val-Ala-Asp(OMe)-CH2F), the IC50 on Caspase-3 is 40 µM.
As to `C#CCN1C(=O)C(=O)c2cc(S(=O)(=O)N(C)Cc3ccc(F)cc3)ccc21`, the IC50 at Caspase-3 was more than 100 µM; in series [1], 4.31 µM; in series [2], more than 100 µM. In addition, the inhibition constant (Ki) in series [1] came out at 1140 nM. In addition, the Ratio IC50 in the series filed under Homo sapiens is more than 23.9.
As for `C#CCN1C(=O)C(=O)c2ccccc21`, the figures for the IC50 (at Caspase-3; in series [1]; in series [2]) were more than 100 µM, 30.9 µM and 35.2 µM, respectively. Moreover, the results for the inhibition constant Ki in series [1] and in series [2] were 8140 nM and 15.1 µM, respectively. Besides, in the series filed under Homo sapiens, the Ratio IC50 came to 2.12.
`C#CCN1C(=O)C(=O)c2cc(S(=O)(=O)N(C)Cc3ccccc3F)ccc21`: in series [1], the IC50 is 9.43 µM and the Ki was determined as 2480 nM. Moreover, in series [2], the IC50 amounted to 128 µM and the Ki stood at 55.2 µM.
The like results for `CN(Cc1cccc(F)c1)S(=O)(=O)c1ccc2c(c1)C(=O)C(=O)N2` were, in that order, 22.8 µM, 6000 nM, 8.32 µM and 3.58 µM.
